Source: patent US6630165B2, “Methods for providing effective reboxetine therapy with once-a-day dosing” (priority 1999, dated 2003)

What was measured:
[1] = reboxetine elimination half-life and time to steady state; assay type: in vivo; conditions: about four elimination half lives after initiation of continuous intermittent dosing
Procedure: Generally, continuous dosing for a period equal to about four elimination half lives is required to obtain steady-state conditions. Accordingly, steady-state conditions are approached at approximately 52 hours following initiation of a continuous intermittent dosing regimen. Mean steady-state plasma reboxetine concentrations following dosing every 24 hours with 4 mg doses of reboxetine methanesulfonate in two different sustained release dosage forms, having T90 values of about 9 hours and about 18 hours, respectively, and following dosing every 12 hours with 2 mg doses of reboxetine methanesulfonate (total daily dose=4 mg) in an immediate release dosage form for a period of four days (96 hours) were simulated.

[2] = in vivo; cited from earlier work

time at which steady-state conditions are approached [1]: approximately 52 hours
Structure (SMILES): CCOc1ccccc1OC(c1ccccc1)C1CNCCO1 (stereo not drawn) [Reboxetine, 2-[α(2-ethoxyphenoxy)benzyl]morpholine]
elimination half-life (t1/2) [2]: about 13 hours
